Data published in PMC9232501, “Results of the phase I CCTG IND.231 trial of CX-5461 in patients with advanced solid tumors enriched for DNA-repair deficiencies” (Nature Communications, 2022).
Where “and” joins values, the source holds several entries; their conditions need not be identical. Equal entries are not always repeated.

System: HCT116 cells
Experiment: HCT116 cytotoxicity (WST-1 assay) with and without UVA radiation
Format: cell-based, Human
Conditions: for potentiation of UVA-induced cytotoxicity: UV 5 mJ/cm^2 and 125 mJ/cm^2; for WST-1 raw signal (Figure 5d) / WST-1 raw signal (Figure 5b): replicates
Experimental: Fig. 5 Comparison of G4 ligand photosensitization. […] Vertical axis, fractional survival, horizontal axis log10 drug concentration (M) (f) Representative images of CPD immunofluorescent staining under UV and drug treatment conditions for U2OS cells, quantified from biological duplicates in (g) (h) Scale bar = 100um. U2OS cells were treated with drug or vehicle control, then immediately irradiated with UVA 125 mJ/cm^2; and fixed 1 h later for immunofluorescence staining with CPD antibody. g Distribution of mean intensity of CPD level per cell (total n = in labels), with two biological repeats per condition. Vertical axis, mean CPD intensity per cell, horizontal axis, conditions (h) WT or KO XPA HAP1 cells assayed for cytotoxicity. Vertical axis, fractional survival (WST-1 assay). The horizontal axis, log10 drug concentration (M). Error bars = standard deviation of the mean. Three biological repeats per condition.
Human epidermal keratinocytes (HEKa) cells were sourced from Thermo Fisher Scientific, and were grown in EpiLife™ Medium with HKGS. HAP WT and XPA knockout cell lines (Horizon Discovery) were cultured in IMDM, 10% FCS. Human HCT116 cells, U2OS cells (ATCC) were grown in McCoy’s 5 A medium with 10% FBS and L-glutamine. All cell lines are mycoplasma free and have been authenticated by STR or SNP profiling. CX-5461 was provided by Senhwa Biosciences, Inc. PDS is from Sigma-Aldrich, BRACO-19 from Alfa Chemistry, PhENDC3 is from Sigma-Aldrich, γ -H2AX antibody from Abcam (1:1000 for IF) and CPD antibody (1:1500) from Cosmo Bio Ltd. (Catalog number: CAC-NM-DAD-001). The WST-1 assay was performed as previously described, γ H2AX foci staining was performed as previously described. Immunofluorescence staining of CPD was performed according to the protocol from the manufacturer (Cosmo Bio Ltd).

## CN(C)c1ccc(Nc2c3ccc(NC(=O)CCN4CCCC4)cc3nc3cc(NC(=O)CCN4CCCC4)ccc23)cc1 [BRACO-19]
  potentiation of UVA-induced cytotoxicity: not
Conc 1.31e-6, 5mJ/cm2 UV
  WST-1 raw signal (Figure 5d): 2.4666 and 1.6857
Conc 1.31e-6, 125mJ/cm2 UV
  WST-1 raw signal (Figure 5d): 1.7146 and 2.5235
Conc 1.31e-6, no UV
  WST-1 raw signal (Figure 5d): 1.0028 and 1.1127 and 1.1944
Conc 2.63e-6, 5mJ/cm2 UV
  WST-1 raw signal (Figure 5d): 1.5923 and 2.1232
Conc 2.63e-6, 125mJ/cm2 UV
  WST-1 raw signal (Figure 5d): 1.7241 and 1.9009
Conc 2.63e-6, no UV
  WST-1 raw signal (Figure 5d): 1.0332 and 1.1578 and 1.2506
Conc 5.25e-6, 5mJ/cm2 UV
  WST-1 raw signal (Figure 5d): 2.5376 and 1.7122
Conc 5.25e-6, 125mJ/cm2 UV
  WST-1 raw signal (Figure 5d): 1.8158 and 1.6795
Conc 5.25e-6, no UV
  WST-1 raw signal (Figure 5d): 0.8877 and 1.1208 and 1.1731
Conc 1.05e-5, 5mJ/cm2 UV
  WST-1 raw signal (Figure 5d): 2.0499 and 1.7849
Conc 1.05e-5, 125mJ/cm2 UV
  WST-1 raw signal (Figure 5d): 1.734 and 1.5629
Conc 1.05e-5, no UV
  WST-1 raw signal (Figure 5d): 0.9118 and 1.1353 and 1.1139
Conc 2.1e-5, 5mJ/cm2 UV
  WST-1 raw signal (Figure 5d): 2.2151 and 1.3748
Conc 2.1e-5, 125mJ/cm2 UV
  WST-1 raw signal (Figure 5d): 1.3993 and 1.3857
Conc 2.1e-5, no UV
  WST-1 raw signal (Figure 5d): 0.9051 and 1.0979 and 1.0693
Conc 4.2e-5, 5mJ/cm2 UV
  WST-1 raw signal (Figure 5d): 1.7663 and 1.2587
Conc 4.2e-5, 125mJ/cm2 UV
  WST-1 raw signal (Figure 5d): 1.2502 and 1.0049
Conc 4.2e-5, no UV
  WST-1 raw signal (Figure 5d): 0.8968 and 1.0934 and 1.1351
Conc 8.4e-5, 5mJ/cm2 UV
  WST-1 raw signal (Figure 5d): 0.4969 and 0.3888
Conc 8.4e-5, 125mJ/cm2 UV
  WST-1 raw signal (Figure 5d): 0.4246 and 0.5991
Conc 8.4e-5, no UV
  WST-1 raw signal (Figure 5d): 0.3873 and 0.5407 and 0.5015
Conc 1.64E-07, 5mJ/cm2 UV
  WST-1 raw signal (Figure 5d): 2.3685 and 1.9812
Conc 1.64E-07, 125mJ/cm2 UV
  WST-1 raw signal (Figure 5d): 1.617 and 1.4273
Conc 1.64E-07, no UV
  WST-1 raw signal (Figure 5d): 1.0063 and 1.0872 and 1.153
Conc 3.28E-07, 5mJ/cm2 UV
  WST-1 raw signal (Figure 5d): 1.3974 and 1.689
Conc 3.28E-07, 125mJ/cm2 UV
  WST-1 raw signal (Figure 5d): 1.2981 and 1.6967
Conc 3.28E-07, no UV
  WST-1 raw signal (Figure 5d): 0.8955 and 1.1379 and 1.1636
Conc 6.56E-07, 5mJ/cm2 UV
  WST-1 raw signal (Figure 5d): 2.2078 and 2.2342
Conc 6.56E-07, 125mJ/cm2 UV
  WST-1 raw signal (Figure 5d): 1.8184 and 2.0816
Conc 6.56E-07, no UV
  WST-1 raw signal (Figure 5d): 1.0072 and 1.1785 and 1.064

## CN1CCC[C@H]1CCNC(=O)c1cn2c3c(c(N4CCC(c5cnccn5)C4)c(F)cc3c1=O)Oc1cc3ccccc3cc1-2 (some centres unmarked) [CX-3543, quarfloxin]
  potentiation of UVA-induced cytotoxicity: Strong potentiation
Conc 1.00E-07, 5mJ/cm2 UV
  WST-1 raw signal (Figure 5b): 0.1176 and 0.1409 and 0.1492
Conc 1.00E-07, 125mJ/cm2 UV
  WST-1 raw signal (Figure 5b): 0.1326 and 0.1388 and 0.1325
Conc 1.00E-07, no UV
  WST-1 raw signal (Figure 5b): 0.3065 and 0.2985 and 0.3333
Conc 1.25E-08, 5mJ/cm2 UV
  WST-1 raw signal (Figure 5b): 0.2437 and 0.3248 and 0.2269
Conc 1.25E-08, 125mJ/cm2 UV
  WST-1 raw signal (Figure 5b): 0.1256 and 0.1309 and 0.1293
Conc 1.25E-08, no UV
  WST-1 raw signal (Figure 5b): 0.9466 and 1.0534 and 1.1298
Conc 1.56E-09, 5mJ/cm2 UV
  WST-1 raw signal (Figure 5b): 0.8994 and 0.9603 and 1.0971
Conc 1.56E-09, 125mJ/cm2 UV
  WST-1 raw signal (Figure 5b): 0.4201 and 0.4656 and 0.3751
Conc 1.56E-09, no UV
  WST-1 raw signal (Figure 5b): 1.1359 and 1.1204 and 1.1484
Conc 2.00E-07, 5mJ/cm2 UV
  WST-1 raw signal (Figure 5b): 0.1365 and 0.1282 and 0.1322
Conc 2.00E-07, 125mJ/cm2 UV
  WST-1 raw signal (Figure 5b): 0.1395 and 0.1322 and 0.1311
Conc 2.00E-07, no UV
  WST-1 raw signal (Figure 5b): 0.2081 and 0.2189 and 0.1938
Conc 2.50E-08, 5mJ/cm2 UV
  WST-1 raw signal (Figure 5b): 0.2095 and 0.1617 and 0.1535
Conc 2.50E-08, 125mJ/cm2 UV
  WST-1 raw signal (Figure 5b): 0.1433 and 0.1378 and 0.1358
Conc 2.50E-08, no UV
  WST-1 raw signal (Figure 5b): 0.8495 and 0.8987 and 0.779
Conc 3.13E-09, 5mJ/cm2 UV
  WST-1 raw signal (Figure 5b): 0.6485 and 0.7419 and 0.9883
Conc 3.13E-09, 125mJ/cm2 UV
  WST-1 raw signal (Figure 5b): 0.2369 and 0.2535 and 0.2676
Conc 3.13E-09, no UV
  WST-1 raw signal (Figure 5b): 1.0174 and 1.1372 and 1.1113
Conc 3.91E-10, 5mJ/cm2 UV
  WST-1 raw signal (Figure 5b): 1.0118 and 0.9721 and 1.5038
Conc 3.91E-10, 125mJ/cm2 UV
  WST-1 raw signal (Figure 5b): 0.8661 and 1.1363 and 0.97
Conc 3.91E-10, no UV
  WST-1 raw signal (Figure 5b): 1.0197 and 1.049 and 1.1065
Conc 5.00E-08, 5mJ/cm2 UV
  WST-1 raw signal (Figure 5b): 0.1533 and 0.1449 and 0.1376
Conc 5.00E-08, 125mJ/cm2 UV
  WST-1 raw signal (Figure 5b): 0.1545 and 0.1405 and 0.1347
Conc 5.00E-08, no UV
  WST-1 raw signal (Figure 5b): 0.5561 and 0.5613 and 0.5776
Conc 6.25E-09, 5mJ/cm2 UV
  WST-1 raw signal (Figure 5b): 0.5204 and 0.5393 and 0.4087
Conc 6.25E-09, 125mJ/cm2 UV
  WST-1 raw signal (Figure 5b): 0.1582 and 0.1598 and 0.1609
Conc 6.25E-09, no UV
  WST-1 raw signal (Figure 5b): 1.0374 and 1.1818 and 1.0522
Conc 7.81E-10, 5mJ/cm2 UV
  WST-1 raw signal (Figure 5b): 0.7587 and 1.1105 and 1.4362
Conc 7.81E-10, 125mJ/cm2 UV
  WST-1 raw signal (Figure 5b): 0.5029 and 0.7057 and 0.876
Conc 7.81E-10, no UV
  WST-1 raw signal (Figure 5b): 1.0762 and 1.1392 and 1.1311
